Counter-ions that a name gives are not always drawn.
tested on: IL-5 production in human blood; assay: In vitro inhibition of IL-5 production in human blood (phytohemagglutinin-stimulated whole blood, ELISA); assay type: cell-based; conditions: test dose 1×10^−6 M, phytohemagglutinin 2 μg/ml, 48 hours
Protocol: EXAMPLE C.1: IN VITRO INHIBITION OF IL-5 PRODUCTION IN HUMAN BLOOD
Peripheral blood from healthy male donors was drawn into heparinized syringes (12.5 U heparin/ml). Blood samples were three-fold diluted in RMPI 1640 medium (Life Technologies, Belgium) supplemented with 2 mM L-glutamine, 100 U/ml penicillin and 100 μg/ml streptomycin, and 300 μl fractions were distributed in 24-well multidisc plates. Blood samples were preincubated (60 minutes at 37° C.) in a humidified 6% CO2-atmosphere with 100 μl of drug solvent (final concentration 0.02% dimethylsulfoxide in RPMI 1640) or with 100 μl of an appropriate dose of test compound before being stimulated by the addition of 100 μl of phytohemagglutinin HA17 (Murex, UK) at a final concentration of 2 μg/ml. After 48 hours, cell-free supernatant fluids were collected by centrifugation and stored at −70° C. until tested for the presence of IL-5.
IL-5 measurements were conducted as described in Van Wauwe et al. (1996, Inflamm Res, 45, 357-363) on page 358 using ELISA.
Table 6 lists the percentage inhibition of IL-5 production (column “% inh”) at a test dose of 1×10^−6 M, or in case the percentage inhibition is marked with an “*” 1×10^−5 M, for the compounds of the present invention.

Going from `CC(C)(c1noc(-c2ccc(F)cc2)n1)c1c(Cl)cc(-n2ncc(=O)[nH]c2=O)cc1Cl` [Compound 96] to `CC(C)(c1noc(-c2ccccn2)n1)c1c(Cl)cc(-n2ncc(=O)[nH]c2=O)cc1Cl` [Compound 98], the “% inh. (percentage inhibition of IL-5 production)” value falls from 82% to 58%.

Going from `CC(C)(NC(=O)c1cccnc1)c1c(Cl)cc(-n2ncc(=O)[nH]c2=O)cc1Cl` [Compound 101] to `Cc1ccc(-c2nc(C(C)(C)c3c(Cl)cc(-n4ncc(=O)[nH]c4=O)cc3Cl)sc2Br)s1` [Compound 111], the “% inh. (percentage inhibition of IL-5 production)” value rises from 19% to 88%.

First: CN1CCN(Cc2ccc(-c3csc(C(C)(C)c4c(Cl)cc(-n5ncc(=O)[nH]c5=O)cc4Cl)n3)s2)CC1 [Compound 112]
Second: CN1CCN(Cc2ccsc2-c2csc(C(C)(C)c3c(Cl)cc(-n4ncc(=O)[nH]c4=O)cc3Cl)n2)CC1.O [Compound 113]
The “% inh. (percentage inhibition of IL-5 production)” value of the first is higher: 39% for the first, 28% for the second.

First: CC(C)(C)OC(=O)c1sc(C(C)(C)c2c(Cl)cc(-n3ncc(=O)[nH]c3=O)cc2Cl)nc1-c1ccccc1 [Compound 116]
Second: CC(C)(c1nc(-c2ccccc2)c(C(=O)O)s1)c1c(Cl)cc(-n2ncc(=O)[nH]c2=O)cc1Cl [Compound 117]
The “% inh. (percentage inhibition of IL-5 production)” value of the first is higher: 89% for the first, −7% for the second.

Compared with `CCOC(=O)Cc1sc(C(C)(C)c2c(Cl)cc(-n3ncc(=O)[nH]c3=O)cc2Cl)nc1-c1cccs1` [Compound 118], `CC(C)(C)OC(=O)c1sc(C(C)(C)c2c(Cl)cc(-n3ncc(=O)[nH]c3=O)cc2Cl)nc1-c1cccs1` [Compound 119] is higher in “% inh. (percentage inhibition of IL-5 production)” value: 78% for the first, 93% for the second.

Compared with `CC(C)(c1nc(-c2cccs2)c(C(=O)O)s1)c1c(Cl)cc(-n2ncc(=O)[nH]c2=O)cc1Cl` [Compound 120], `CC(C)(c1nc(-c2cccs2)c(CC(=O)O)s1)c1c(Cl)cc(-n2ncc(=O)[nH]c2=O)cc1Cl` [Compound 121] is lower in “% inh. (percentage inhibition of IL-5 production)” value: 8% for the first, −3% for the second.

Going from `CC(C)OC(=O)c1sc(C(C)(C)c2c(Cl)cc(-n3ncc(=O)[nH]c3=O)cc2Cl)nc1-c1ccccc1` [Compound 122] to `Cc1ccc(-c2nc(C(C)(C)c3c(Cl)cc(-n4ncc(=O)[nH]c4=O)cc3Cl)no2)cc1` [Compound 125], the “% inh. (percentage inhibition of IL-5 production)” value falls from 94% to 43%.

First: CC(C)(c1noc(-c2cccc(CO)c2)n1)c1c(Cl)cc(-n2ncc(=O)[nH]c2=O)cc1Cl [Compound 127]
Second: COC(=O)c1cccc(-c2nc(C(C)(C)c3c(Cl)cc(-n4ncc(=O)[nH]c4=O)cc3Cl)no2)c1 [Compound 133]
The “% inh. (percentage inhibition of IL-5 production)” value of the first is higher: 67% for the first, 55% for the second.

First: COC(=O)c1ccc(-c2nc(C(C)(C)c3c(Cl)cc(-n4ncc(=O)[nH]c4=O)cc3Cl)no2)cc1 [Compound 135]
Second: Cc1c(F)cccc1-c1nc(C(C)(C)c2c(Cl)cc(-n3ncc(=O)[nH]c3=O)cc2Cl)no1 [Compound 144]
The “% inh. (percentage inhibition of IL-5 production)” value of the first is lower: 11% for the first, 90% for the second.

First: COC(=O)c1ccc(-c2nc(C(C)(C)c3c(Cl)cc(-n4ncc(=O)[nH]c4=O)cc3Cl)no2)nc1 [Compound 146]
Second: Cc1ccnc(C)c1-c1nc(C(C)(C)c2c(Cl)cc(-n3ncc(=O)[nH]c3=O)cc2Cl)no1.ClCCl [Compound 151]
The “% inh. (percentage inhibition of IL-5 production)” value of the first is lower: 4% for the first, 74% for the second.

First: CC(C)(c1noc(C2CCNCC2)n1)c1c(Cl)cc(-n2ncc(=O)[nH]c2=O)cc1Cl.Cl [Compound 152]
Second: CC(C)(c1noc(-c2ccccc2C(F)(F)F)n1)c1c(Cl)cc(-n2ncc(=O)[nH]c2=O)cc1Cl [Compound 153]
The “% inh. (percentage inhibition of IL-5 production)” value of the first is lower: 21% for the first, 77% for the second.

Going from `CC(C)(c1noc(-c2ccccc2CO)n1)c1c(Cl)cc(-n2ncc(=O)[nH]c2=O)cc1Cl` [Compound 155] to `CC(C)(c1noc(-c2ccccc2CC(=O)O)n1)c1c(Cl)cc(-n2ncc(=O)[nH]c2=O)cc1Cl` [Compound 158], the “% inh. (percentage inhibition of IL-5 production)” value falls from 85% to 3%.

“(α+β)-2-[3,5-dichloro-4-[1-[5-[3-[[tetrahydro-3,4,5-trihydroxy-6-hydroxymethyl)-2H-pyran-2H-pyran-2-yl]amino]phenyl]-4-phenyl-2-thiazolyl]-1-methylethyl]phenyl]-1,2,4-triazine-3,5(2H,4H)-dione 2-propanolate(1:1) [Compound 64]” was tested, and the “% inh. (percentage inhibition of IL-5 production)” value was 86%.

same assay, conditions: test dose 1×10^−6 M, phytohemagglutinin 2 μg/ml, 48 hours, read-out: % inh. (percentage inhibition of IL-5 production)

Going from `CN1CCN(Cc2ccccc2-c2nc(C(C)(C)c3c(Cl)cc(-n4ncc(=O)[nH]c4=O)cc3Cl)no2)CC1` [Compound 94, 2-[3,5-dichloro-4-[1-methyl-1-[5-[2-[(4-methyl-1-piperazinyl)methyl]phenyl]-1,2,4-oxadiazol-3-yl]ethyl]phenyl]-1,2,4-triazine-3,5(2H,4H)-dione trihydrochloride] to `Cc1ncccc1-c1nc(C(C)(C)c2c(Cl)cc(-n3ncc(=O)[nH]c3=O)cc2Cl)no1` [Compound 150, 2-[3,5-dichloro-4-[1-methyl-1-[5-(2-methyl-3-pyridinyl)-1,2,4-oxadiazol-3-yl]ethyl]phenyl]-1,2,4-triazine-3,5(2H,4H)-dione], the inhibition at 1 µM rises from 34% to 73%.

First: CC(C)(c1noc(-c2ccncc2)n1)c1c(Cl)cc(-n2ncc(=O)[nH]c2=O)cc1Cl [Compound 97, 2-[3,5-dichloro-4-[1-methyl-1-[5-(4-pyridinyl)-1,2,4-oxadiazol-3-yl]ethyl]phenyl]-1,2,4-triazine-3,5(2H,4H)-dione]
Second: CC(C)(c1noc(-c2cccnc2)n1)c1c(Cl)cc(-n2ncc(=O)[nH]c2=O)cc1Cl [Compound 124, 2-[3,5-dichloro-4-[1-methyl-1-[5-(3-pyridinyl)-1,2,4-oxadiazol-3-yl]ethyl]phenyl]-1,2,4-triazine-3,5(2H,4H)-dione]
The inhibition at 1 µM of the first is higher: 90% for the first, 86% for the second.

Source: US6894046B2, “IL-5 inhibiting 6-azauracil derivatives” (Janssen Pharmaceutica N.V., priority 1998, dated 2005)
